Entries after “also recorded” stand apart in the source; their conditions may differ. Read-outs that look alike come from different tables or passages of the source.
Tested on: atherosclerosis in New Zealand white rabbit on high fat diet
Settings: for atherosclerosis Grade: individual animals
Description: New Zealand rabbits were adopted in this animal study and divided into 5 groups. They were high dose, medium dose and low dose of treatment, positive and vehicle control. The treatment groups were given APOAI via auricular vein once a week. […] Positive controls were given Liptor daily by p.o. with a dose of 0.45 mg/kg body weight. […] The study duration was 19 weeks. At the end of study, all animals were sacrificed. […] Lipid content was examined in liver and aorta. And liver index was also determined.
The body weight was between 1.8-2.0 kg. The animals were quarantined for 5-10 days with normal diet before study.
Animals were randomly divided into 5 groups including vehicle control, high dose, medium dose, low dose and positive control group. Ten to 14 rabbits were in one group. Each rabbit was fed with 30 gram of high fat diet followed by 120 gram of normal diet with free access to water.
The frequency of dosing was once a week. Dose was 80, 40, 20 mg/kg body weight respectively. Drug was given by intravenous injection via auricular vein with the volume of 5 mL.
5.1 body weight: body weight of each rabbit was determined once a week.
Resulted blood samples were kept still for 2 hours and then spin with 4,000 rpm for 10 min.
Abdomen cavity was opened. Whole blood was taken from heart. Heart was harvested along with 7 cm of aorta.
The aorta was dissected for 0.5 cm from aortic arch, split longitudinally and then kept in cryo-preservation tube for later lipid analysis. One piece of this sample was fixed in formalin for further pathological analysis.
The weight of liver was determined immediately. Two pieces of specimen were cut from hepatic lobe.
Resulted blood samples were kept still for 2 hours.
The aorta was dissected and opened for 7.5 cm from aortic arch longitudinally. Pictures were taken and atherosclerosis changing was analyzed.

human Apolipoprotein AI [APOAI]
Lipid content in aorta: HDL-C (High dose): 0.111 ± 0.057
Lipid content in aorta: LDL-C (High dose): 0.318 ± 0.05
Lipid content in aorta: TC (High dose): 0.29 ± 0.098
Lipid content in aorta: TG (High dose): 0.402 ± 0.101
Lipid content in liver: HDL-C (High dose): 0.825 ± 0.129
Lipid content in liver: LDL-C (High dose): 2.302 ± 0.054
Lipid content in liver: TC (High dose): 2.841 ± 0.298
Lipid content in liver: TG (High dose): 1.3 ± 0.171
TG content in liver vs vehicle control (High dose): significantly lower
Lipid content in aorta: HDL-C (Low dose): 0.092 ± 0.066
Lipid content in aorta: LDL-C (Low dose): 0.254 ± 0.078
Lipid content in aorta: TC (Low dose): 0.28 ± 0.047
Lipid content in aorta: TG (Low dose): 0.337 ± 0.055
Lipid content in liver: HDL-C (Low dose): 0.803 ± 0.236
Lipid content in liver: LDL-C (Low dose): 1.857 ± 0.559
Lipid content in liver: TC (Low dose): 2.95 ± 0.809
Lipid content in liver: TG (Low dose): 1.369 ± 0.251
Lipid content in aorta: HDL-C (Middle dose): 0.128 ± 0.064
Lipid content in aorta: LDL-C (Middle dose): 0.307 ± 0.043
Lipid content in aorta: TC (Middle dose): 0.332 ± 0.135
Lipid content in aorta: TG (Middle dose): 0.388 ± 0.124
Lipid content in liver: HDL-C (Middle dose): 0.815 ± 0.249
Lipid content in liver: LDL-C (Middle dose): 1.407 ± 0.418
Lipid content in liver: TC (Middle dose): 2.214 ± 0.515
Lipid content in liver: TG (Middle dose): 1.081 ± 0.31
liver and aorta of sacrificed animal (after 12 weeks of high fat diet, 1 animal): no abnormal change
HDL-C vs vehicle control (all treatment groups): significantly high
number of animals of Grade I (high dose group): Grade I: 0 animal;
number of animals of Grade II (high dose group): Grade II: 5 animals;
number of animals of Grade III (high dose group): Grade III: 0 animal;
number of animals of Grade IV (high dose group): Grade IV: 3 animals.
atherosclerosis Grade (high dose group): II (grade II was between 25% to 50%); also recorded: IV (Grade IV was greater than 75%)
TG content in liver vs vehicle control (low dose): significantly lower
liver cellular swelling vs vehicle control (low dose): same in low dose group and vehicle control
liver fat degeneration vs vehicle control (low dose): better
pathological change of aorta vs vehicle control (low dose): no significant improvement
number of animals of Grade I (low dose group): Grade I: 9 animals;
number of animals of Grade II (low dose group): Grade II: 1 animal;
number of animals of Grade III (low dose group): Grade III: 0 animal;
number of animals of Grade IV (low dose group): Grade IV: 2 animals.
LDL-C content in liver vs vehicle control (medium dose): significantly lower
TC content in liver vs vehicle control (medium dose): significantly lower
TG content in liver vs vehicle control (medium dose): significantly lower
area of atherosclerosis vs vehicle control (medium dose): significant less
liver cellular swelling and fat degeneration vs vehicle control (medium dose): better
number of animals of Grade I (medium dose group): Grade I: 6 animals;
number of animals of Grade II (medium dose group): Grade II: 2 animals;
number of animals of Grade III (medium dose group): Grade III: 0 animal;
number of animals of Grade IV (medium dose group): Grade IV: 0 animal.
atherosclerosis Grade (medium dose group): I (grade I was less than 25%); also recorded: II (grade II was between 25% to 50%)
pathological change of aorta vs vehicle control (medium dose, endothelium swelling, smooth muscle migrating, foam cell formation): better

From US20170266266A1, “Functions of 55 Newfound Proteins and Their Medicinal Application in the Treatment and Prevention of Disease” (priority 2012, published 2017)
